According to PMC11397024, “Strategic Fluorination to Achieve a Potent, Selective, Metabolically Stable, and Orally Bioavailable Inhibitor of CSNK2” (Molecules, 2024):

Tests used:
CSNK2A2 = target: T1, CSNK2A2 (Homo sapiens, UniProt P19784); assay: NanoBRET assay CSNK2A2; type: cell-based; details: HEK293 cells, singlicate, read-out: CSNK2A2 pIC50 (converted)
T1 construct: expressed in transfected cells; host or cells: HEK293
Experimental: Assays were run using a modified version of the previously published protocols. […] A transfection complex of DNA (10 μg/mL) was generated consisting of 9 μg/mL carrier DNA (Promega, Madison, WI, USA) and 1 μg/mL CSNK2A-NLuc fusion DNA in Opti-MEM without serum (Gibco). FuGENE HD (Promega) was added at 30 μL/mL to form a lipid–DNA complex. The solution was then mixed and incubated at room temperature for 20 min. The transfection complex was mixed with a 20× volume of HEK293 cells in DMEM/FBS to arrive at a final concentration of 200,000 cells/mL, and 100 μL/well was added to a 96-well plate that was incubated overnight at 37 °C and 5% CO2. The following day, the medium was removed via aspiration and replaced with 85 μL of Opti-MEM without phenol red. A total of 5 μL per well of 20× NanoBRET Tracer K10 (Promega) at 10 μM for CSNK2A1 or 5 μM for CSNK2A2 in Tracer Dilution Buffer (Promega N291B) was added to all wells, except the “no tracer” control wells. Test compounds (10 mM in DMSO) were diluted 100× in Opti-MEM media to prepare stock solutions and evaluated at 11 concentrations. A total of 10 μL per well of the 10-fold test compound stock solutions (final assay concentration of 0.1% DMSO) were added. […] The plates were read within 30 min on a GloMax Discover luminometer (Promega) equipped with a 450 nm BP filter (donor) and 600 nm LP filter (acceptor) using 0.3 s of integration time. […]

[1] = Snapshot (5 h) PK study with/without EA and 1-ABT; type: in vivo; details: male, CD-1, mouse, plasma, ip, 10 mg/kg, CD-1 mice, 10 mg/kg i.p.
Experimental: In the 5 h PK study investigating the effect of co-dosing EA and 1-ABT, two cohorts of male CD-1 mice (6–8 weeks old, 20–30 g) were dosed via intraperitoneal (i.p.) administration of compound 2 (10 mg/kg) as a 10 mL/kg volume of a 1.0 mg/mL solution in DMSO/PEG-400/saline (v/v/v, 10:30:60). EA (30 mg/kg) was administered i.p. as a 1.0 mL/kg volume of a 30 mg/mL solution in NMP/PEG-400/water (v/v/v, 10:60:30) as a 6 h pretreatment and again at the time of dosing with compound 2. 1-ABT (100 mg/kg) was administered p.o. as a 10 mL/kg volume of a 10 mg/mL solution in saline as a 2 h pretreatment. No co-treatment with EA or 1-ABT was applied to the first cohort. Co-treatment with EA (30 mg/kg) and 1-ABT (100 mg/kg) was applied in the second cohort. Two mice were dosed in each cohort. The mice had free access to water and food. Blood (0.03 mL) was collected from the dorsal metatarsal vein at 0.5, 1, 3, and 5 h time points. Each blood sample was transferred into a plastic microcentrifuge tube containing EDTA-K2 anticoagulant. Blood samples were centrifuged at 4000× g for 5 min at 4 °C to obtain plasma. The samples were stored in a freezer at −75 ± 15 °C prior to analysis. Plasma samples from the two mice from each cohort and each time point were pooled together for analysis. At 5 h post dose administration, the mice were anesthetized using increasing concentrations of CO2, and lung samples were collected. Lung samples were quickly frozen in an ice box and stored at −75 ± 15 °C. Prior to analysis, all lung samples were weighed and homogenized with phosphate-buffered saline (PBS) in a lung weight (g)/buffer volume (mL) ratio of 1:3. The final compound concentration was calculated by multiplying the detected concentration by a dilution factor of four.
Concentrations of the test compound in the plasma samples were determined using a Prominence LC-MS/MS system with a DGU-20A5R(C) degasser, LC-30AD pump, CBM-20A system controller, SIL-20AC HT autosampler; Rack changer II, HALO 90A ES-CN (2.7 μm, 2.1 × 50 mm) column, and AB Sciex Triple Quan 5500 LC/MS/MS instrument. The mobile phase was 5–95% MeCN in H2O, with 0.1% formic acid. The desired serial concentrations of working solutions were achieved by diluting the stock solution of the analyte with 50% acetonitrile in water. A series of 10 µL working solutions […] were added to 10 μL of blank plasma or lung homogenate to achieve calibration standards of 0.5, 1, 2, 5, 10, 50, 100, 500, 1000 ng/mL in a total volume of 20 μL. A total of 5 quality control samples at 1 ng/mL, 2 ng/mL, 5 ng/mL, 100 ng/mL, and 800 ng/mL were prepared independently of those used for the calibration curves in the same manner. A 20 μL standard, 20 μL QC sample, and 20 μL of an unknown sample (10 µL plasma or lung homogenate with 10 µL blank solution) were added to 200 μL of acetonitrile containing internal standard mixture for precipitating protein. Then, the samples were vortexed for 30 s. After centrifugation at 4 °C and 4000 rpm for 15 min, the supernatant was diluted with ultrapure water at a ratio of 1:2 (v/v, 1:2), then 20 µL of diluted supernatant was injected into the LC/MS/MS system for quantitative analysis. PK parameters were calculated from the mean plasma concentration versus time using a noncompartmental model in WinNonlin Phoenix version 8.3.

[2] = Unbound fraction in mouse plasma; type: in vitro ADME; details: read-out: unbound fraction in mouse plasma (fu)
[3] = with both EA (30 mg/kg) and 1-ABT (100 mg/kg)

T1 sequence (P19784 whole entry): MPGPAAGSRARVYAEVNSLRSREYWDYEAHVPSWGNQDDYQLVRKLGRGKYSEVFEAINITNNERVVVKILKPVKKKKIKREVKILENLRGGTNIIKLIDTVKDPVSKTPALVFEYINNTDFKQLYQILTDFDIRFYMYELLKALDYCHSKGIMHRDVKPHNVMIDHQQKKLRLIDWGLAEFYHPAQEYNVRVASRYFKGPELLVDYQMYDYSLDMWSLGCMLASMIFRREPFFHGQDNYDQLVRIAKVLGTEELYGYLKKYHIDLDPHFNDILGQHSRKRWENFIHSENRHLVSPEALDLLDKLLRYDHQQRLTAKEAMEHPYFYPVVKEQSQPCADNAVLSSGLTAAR

With `CCC(=O)Nc1cc(Nc2cc(NC3CC3)n3ncc(C#N)c3n2)c(F)cc1N1CCC[C@H](NC)C1` [Compound 2, (S)-N-(5-((3-cyano-7-(cyclopropylamino)pyrazolo[1,5-a]pyrimidin-5-yl)amino)-4-fluoro-2-(3-(methylamino)piperidin-1-yl)phenyl)propionamide] as the molecule, how does the IC50 (CSNK2A2) read?
The IC50 was 12.6 nM.

And the AUC(0-t) ([1]; no co-treatment)?
Its AUC(0-t) is 7.77 µM·h.

What about the Cmax ([1]; no co-treatment) of the same molecule?
Its Cmax is 3.19 µM.

And the half-life ([1]; no co-treatment)?
Its half-life is 2.5 h.

What about the AUC(0-t) [1, 3] of the same molecule?
Its AUC(0-t) is 10.1 µM·h.

What about the Cmax [1, 3] of the same molecule?
The Cmax was 3.15 µM.

And the half-life [1, 3]?
The half-life was 3.7 h.

What about the fraction unbound [2] of the same molecule?
Its fraction unbound is 0.0605.
